# Where “and” joins values, the source holds several entries; their conditions need not be identical. Equal entries are not always repeated.
# Experiments:
# VEGFR-2 [1] = biological target: T1, VEGFR-2 (Homo sapiens, UniProt P35968); experiment: ADP-Glo in vitro RTK inhibition assay, VEGFR-2; type: biochemical; conditions: ATP 50 μM
# Description: (§1) In order to validate the direct effect of title compounds on VEGFR-2, Tie-2, and EphB4 kinases, we performed in vitro assay using the ADP-Glo Kinase Assay Kit (Promega, Wisconsin, USA).
# (§2) The kinase assay was performed in a reaction mixture of final volume of 10 μL. […] The plate was incubated at 30°C for 1 h. After the plate was cooled at room temperature for 5 min, 5 μL of ADP-Glo reagent was added into each well to stop the reaction and consume the remaining […] within 40 min. At the end, 10 μL of kinase detection reagent was added into the well and incubated for 30 min to produce a luminescence signal. […] The assay plate was incubated at 30°C for 4 h. After the plate was cooled at room temperature for 5 min, 5 μL of ADP-Glo reagent was added into each well to stop the reaction and consume the remaining […] within 1 h. At the end, 10 μL of kinase detection reagent was added into each well and incubated for 30 min to produce a luminescence signal. The luminescence was read by VICTOR-X multi-label plate reader.
# TIE-2 = TIE-2 (Homo sapiens, UniProt Q02763); experiment: ADP-Glo in vitro RTK inhibition assay, TIE-2; type: biochemical; conditions: ATP 50 μM
# Description: as §1, §2
# EphB4 = biological target: T2, EphB4 (Homo sapiens, UniProt P54760); experiment: ADP-Glo in vitro RTK inhibition assay, EphB4; type: biochemical; conditions: ATP 50 μM
# T2 sequence (P54760 16-987): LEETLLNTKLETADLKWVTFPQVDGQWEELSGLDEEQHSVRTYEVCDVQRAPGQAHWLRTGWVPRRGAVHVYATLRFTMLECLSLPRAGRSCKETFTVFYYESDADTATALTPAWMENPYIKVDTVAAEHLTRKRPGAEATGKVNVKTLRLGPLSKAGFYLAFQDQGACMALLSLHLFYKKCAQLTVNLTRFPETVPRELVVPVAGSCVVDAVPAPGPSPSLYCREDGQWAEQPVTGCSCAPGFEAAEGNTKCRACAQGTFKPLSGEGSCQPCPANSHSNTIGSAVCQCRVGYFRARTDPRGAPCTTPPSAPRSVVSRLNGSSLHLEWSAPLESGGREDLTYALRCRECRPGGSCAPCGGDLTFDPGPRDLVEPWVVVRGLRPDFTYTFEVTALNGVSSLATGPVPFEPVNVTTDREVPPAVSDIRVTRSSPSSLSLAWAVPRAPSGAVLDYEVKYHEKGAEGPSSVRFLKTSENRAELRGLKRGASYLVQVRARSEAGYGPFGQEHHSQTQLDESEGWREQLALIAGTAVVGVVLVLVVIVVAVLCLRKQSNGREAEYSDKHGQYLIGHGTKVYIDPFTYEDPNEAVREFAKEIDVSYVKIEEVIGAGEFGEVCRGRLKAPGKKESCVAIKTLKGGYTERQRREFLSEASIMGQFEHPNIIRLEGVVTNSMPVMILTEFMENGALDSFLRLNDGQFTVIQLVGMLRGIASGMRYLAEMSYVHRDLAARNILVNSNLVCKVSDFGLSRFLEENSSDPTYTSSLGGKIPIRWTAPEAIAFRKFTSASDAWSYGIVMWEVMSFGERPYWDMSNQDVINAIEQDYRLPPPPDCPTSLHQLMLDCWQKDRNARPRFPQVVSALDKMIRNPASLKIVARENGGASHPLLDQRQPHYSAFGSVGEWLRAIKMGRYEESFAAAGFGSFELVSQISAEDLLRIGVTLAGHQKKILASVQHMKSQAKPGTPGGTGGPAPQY
# Description: as §1, §2
# EA.hy926 = experiment: Human endothelial cell (EA.hy926) viability assay, CCK-8; type: cell-based; conditions: Homo sapiens, EA.hy 926, 24 h, CCK-8, 24 h treatment; read-out: Inhibition of human endothelial cell viability, EA.hy926 IC50
# Description: In order to determine the anti-angiogenic effect of these multi-target inhibitors, we evaluated their effect on HECs (EA.hy926) viability using cell counting kit-8 (CCK-8) method.
# The viability of HECs (EA.hy926) was assessed using the cell counting kit-8 (CCK-8, Sigma, USA) assay according to the manufacturer's instruction. […] After incubation at 37°C for 48 h, the cells were treated with tested compounds at various concentrations for 24 h. Subsequently, premixed CCK-8 and medium (10 μL) were added into the 96-well plates to monitor cell viability and were incubated at 37°C for 2 h. The number of viable cells was assessed by measurement of absorbance at 450 nm by a microplate reader. The viability rate was calculated as experimental OD value/control OD value.
# MCF-7 xenograft = experiment: In vivo MCF-7 xenograft mice model; conditions: ig, 40 mg/kg daily, 21 days
# Description: Six-week old female BALB/c mice were purchased from Shanghai Laboratory Animal center of the Chinese Academy of Sciences and housed under aseptic and ventilated condition. The mice were inoculated by subcutaneous injection with MCF-7 cancer cells suspended in 5% saline. Tumor volume and weight were measured on alternate days. Body weights were monitored as an indicator of toxicity. […] Treatment started from the next day and continued for 21 days. All mice were killed at the end of the experiment, and subcutaneous tumors were removed and weighted.
# VEGFR-2 [2] = biological target: T1, VEGFR-2; experiment: VEGFR-2/cell membrane chromatography (CMC) affinity evaluation; type: binding; conditions: flow rate 0.6 mL/min, 37°C, 5 mM PBS pH 7.4, 270 nm
# Description: In previous studies, artificial cultures highly expressing VEGFR-2 on HEK293 cell lines were constructed. […] Chromatographic conditions: 10 mm×2.0 mm; flow rate0.6 mL/min; column temperature 37°C; mobile phase 5 mM PBS, pH 7.4; detection wavelength 270 nm.
# The VEGFR-2 cell membrane stationary phase was prepared as previous reported. Aqueous ammonium acetate buffer solution (pH 7.4, 5 mM) was pumped at a flow rate of 0.2 mL/min as the mobile phase after VEGFR-2/CMC column was loaded onto the chromatography system at the temperature of 37°C. […] The mobile phase was 5.0 mM phosphate burred saline with a 0.6 mL/min flow rate at a column temperature of 37°C. The detected wavelength was 270 nm. The test compound was injected into the VEGFR-2/CMC column and their retention characteristics were identified to evaluate their affinity with VEGFR-2.
# Chain of TIE-2 (Q02763 23-1124): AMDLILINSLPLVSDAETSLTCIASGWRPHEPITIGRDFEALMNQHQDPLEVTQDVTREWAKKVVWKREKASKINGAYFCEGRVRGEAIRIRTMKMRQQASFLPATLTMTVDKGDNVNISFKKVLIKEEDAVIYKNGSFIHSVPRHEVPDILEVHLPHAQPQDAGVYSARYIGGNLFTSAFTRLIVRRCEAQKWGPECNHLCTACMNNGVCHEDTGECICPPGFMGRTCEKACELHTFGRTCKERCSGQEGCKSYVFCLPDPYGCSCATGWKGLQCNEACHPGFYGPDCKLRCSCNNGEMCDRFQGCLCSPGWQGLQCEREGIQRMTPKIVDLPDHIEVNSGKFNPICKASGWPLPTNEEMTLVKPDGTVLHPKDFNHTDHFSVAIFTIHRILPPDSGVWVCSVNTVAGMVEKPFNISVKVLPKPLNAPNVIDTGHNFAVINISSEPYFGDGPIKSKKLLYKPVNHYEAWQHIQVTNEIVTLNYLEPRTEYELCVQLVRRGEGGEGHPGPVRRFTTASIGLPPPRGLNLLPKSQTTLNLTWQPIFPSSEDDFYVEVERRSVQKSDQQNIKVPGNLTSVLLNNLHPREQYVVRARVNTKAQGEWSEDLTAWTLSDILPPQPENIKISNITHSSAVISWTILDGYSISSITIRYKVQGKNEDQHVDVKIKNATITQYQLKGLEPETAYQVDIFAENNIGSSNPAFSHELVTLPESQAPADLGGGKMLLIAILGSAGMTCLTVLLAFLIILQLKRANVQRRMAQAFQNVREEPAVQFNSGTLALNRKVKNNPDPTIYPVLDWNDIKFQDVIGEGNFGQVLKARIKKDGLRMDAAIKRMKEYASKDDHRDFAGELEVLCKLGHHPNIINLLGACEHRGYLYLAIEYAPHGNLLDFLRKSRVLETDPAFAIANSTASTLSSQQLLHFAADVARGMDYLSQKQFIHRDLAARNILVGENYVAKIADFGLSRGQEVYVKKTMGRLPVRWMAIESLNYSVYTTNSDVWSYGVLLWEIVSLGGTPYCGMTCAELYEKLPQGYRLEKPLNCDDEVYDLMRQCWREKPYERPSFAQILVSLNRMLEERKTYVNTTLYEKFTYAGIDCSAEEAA
# T1 sequence (P35968 20-1356): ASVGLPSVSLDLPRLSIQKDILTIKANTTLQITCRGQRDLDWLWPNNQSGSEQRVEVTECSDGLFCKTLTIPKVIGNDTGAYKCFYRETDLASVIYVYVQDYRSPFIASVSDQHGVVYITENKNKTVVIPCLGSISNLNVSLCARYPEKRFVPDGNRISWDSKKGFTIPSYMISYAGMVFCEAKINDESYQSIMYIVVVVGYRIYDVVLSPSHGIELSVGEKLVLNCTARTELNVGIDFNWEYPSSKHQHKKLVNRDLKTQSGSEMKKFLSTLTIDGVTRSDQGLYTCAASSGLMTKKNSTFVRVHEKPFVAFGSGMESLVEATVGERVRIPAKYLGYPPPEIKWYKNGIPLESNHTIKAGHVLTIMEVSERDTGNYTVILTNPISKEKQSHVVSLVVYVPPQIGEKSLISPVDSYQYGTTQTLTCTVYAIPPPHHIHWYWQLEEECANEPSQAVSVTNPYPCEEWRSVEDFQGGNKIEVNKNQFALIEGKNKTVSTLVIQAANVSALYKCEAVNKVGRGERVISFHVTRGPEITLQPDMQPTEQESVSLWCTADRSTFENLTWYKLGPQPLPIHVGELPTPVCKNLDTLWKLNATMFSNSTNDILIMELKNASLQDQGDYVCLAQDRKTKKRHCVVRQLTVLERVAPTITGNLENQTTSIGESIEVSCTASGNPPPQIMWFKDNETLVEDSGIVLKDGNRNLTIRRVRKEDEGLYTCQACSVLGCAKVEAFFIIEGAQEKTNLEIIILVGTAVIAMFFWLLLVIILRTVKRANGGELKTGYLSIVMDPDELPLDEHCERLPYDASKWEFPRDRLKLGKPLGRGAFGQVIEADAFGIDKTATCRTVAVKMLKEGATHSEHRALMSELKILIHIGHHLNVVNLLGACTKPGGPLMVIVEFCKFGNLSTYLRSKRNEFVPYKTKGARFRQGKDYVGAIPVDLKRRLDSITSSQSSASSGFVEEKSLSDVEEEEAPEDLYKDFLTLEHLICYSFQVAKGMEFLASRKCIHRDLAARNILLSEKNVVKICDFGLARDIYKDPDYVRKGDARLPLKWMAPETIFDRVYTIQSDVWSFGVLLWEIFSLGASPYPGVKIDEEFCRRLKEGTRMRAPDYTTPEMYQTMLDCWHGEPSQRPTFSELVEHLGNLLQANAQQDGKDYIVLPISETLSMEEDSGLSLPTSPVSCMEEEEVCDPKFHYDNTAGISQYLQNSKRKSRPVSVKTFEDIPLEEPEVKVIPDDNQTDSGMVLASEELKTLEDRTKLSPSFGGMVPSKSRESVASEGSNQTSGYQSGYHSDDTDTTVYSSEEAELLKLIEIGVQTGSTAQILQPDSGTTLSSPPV
SMILES,IC50 (VEGFR-2 [1]),IC50 (TIE-2),IC50 (EphB4),melting point,IC50 (EA.hy926),Final body weight (MCF-7 xenograft),Tumor growth inhibition (MCF-7 xenograft),Final tumor weight (MCF-7 xenograft; control 0.848±0.5),Retention time on VEGFR-2/cell membrane stationary phase column (VEGFR-2 [2])
"FC(F)(F)c1cc(Br)cc(NC(=S)Nc2ccc(-c3cccnc3)cc2)c1 [DATU1, N-[3-bromo-5-(trifluoromethyl)phenyl]-N’-(4-pyridin-3-ylphenyl)thiourea]",20.6 nM,25.7 nM,20 nM,197 to 199 °C,–,–,–,–,–
"FC(F)(F)Oc1cc(Br)ccc1NC(=S)Nc1ccc(-c2cccnc2)cc1 [DATU2, N-[4-bromo-2-(trifluoromethoxy)phenyl]-N’-(4-pyridin-3-ylphenyl)thiourea]",> 500 nM,64.2 nM,> 500 nM,144 to 145 °C,89900 nM,–,–,–,–
"FC(F)(F)Oc1ccc(NC(=S)Nc2ccc(-c3cccnc3)cc2)c(Br)c1 [DATU3, N-[2-bromo-4-(trifluoromethoxy)phenyl]-N’-(4-pyridin-3-ylphenyl)thiourea]",> 500 nM,20 nM,21.8 nM,162 to 163 °C,122000 nM,–,–,–,–
"FC(F)(F)Oc1ccc(Br)cc1NC(=S)Nc1ccc(-c2cccnc2)cc1 [DATU4, N-[5-bromo-2-(trifluoromethoxy)phenyl]-N’-(4-pyridin-3-ylphenyl)thiourea]",> 500 nM,> 500 nM,18.7 nM,154 to 155 °C,44800 nM,–,–,–,–
"FC(F)(F)Oc1ccc(Br)c(NC(=S)Nc2ccc(-c3cccnc3)cc2)c1 [DATU5, N-[2-bromo-5-(trifluoromethoxy)phenyl]-N’-(4-pyridin-3-ylphenyl)thiourea]",> 500 nM,> 500 nM,54.2 nM,125 to 126 °C,246000 nM,–,–,–,–
"S=C(Nc1ccc(-c2cccnc2)cc1)Nc1ccc(Cl)cc1Cl [DATU6, N-(2,4-dichlorophenyl)-N’-(4-pyridin-3-ylphenyl)thiourea]",23.5 nM,66.5 nM,3.86 nM,156 to 157 °C,24400 nM,–,–,–,–
"Fc1ccc(NC(=S)Nc2ccc(-c3cccnc3)cc2)cc1F [DATU7, N-(3,4-difluorophenyl)-N’-(4-pyridin-3-ylphenyl)thiourea]",45.2 nM,48.4 nM,10 nM,139 to 140 °C,96400 nM,–,–,–,–
"S=C(Nc1ccc(-c2cccnc2)cc1)Nc1ccc(Cl)c(Cl)c1 [DATU8, N-(3,4-dichlorophenyl)-N’-(4-pyridin-3-ylphenyl)thiourea]",354 nM,9.4 nM,> 500 nM,173 to 175 °C,102000 nM,–,–,–,–
"FC(F)(F)c1cc(NC(=S)Nc2ccc(-c3cccnc3)cc2)cc(C(F)(F)F)c1 [DATU9, N-[3,5-bis(trifluoromethyl)phenyl]-N’-(4-pyridin-3-ylphenyl)thiourea]",> 500 nM,> 500 nM,> 500 nM,157 to 158 °C,166000 nM,–,–,–,–
"S=C(Nc1ccc(-c2cccnc2)cc1)Nc1ccc2c(c1)OCO2 [DATU10, N-1,3-benzodioxol-5-yl-N’-(4-pyridin-3-ylphenyl)thiourea]",20.4 nM,> 500 nM,> 500 nM,147 to 148 °C,90600 nM,–,–,–,–
"O=C(Nc1ccc(-c2ccc3c(=O)[nH]cnc3c2)cc1)Nc1cccc(C(F)(F)F)c1 [QDAU1, 1-(4-(4-oxo-3,4-dihydroquinazolin-7-yl)phenyl)-3-(3-(trifluoromethyl)phenyl)urea]",194 nM,70.5 nM,> 500 nM,–,57900 nM,–,–,–,–
"O=C(Nc1ccc(-c2ccc3c(=O)[nH]cnc3c2)cc1)Nc1cccc(Cl)c1 [QDAU2, 1-(3-chlorophenyl)-3-(4-(4-oxo-3,4-dihydroquinazolin-7-yl)phenyl)urea]",57.9 nM,83.9 nM,> 500 nM,> 300 °C,66300 nM,–,–,–,–
"O=C(Nc1ccc(-c2ccc3c(=O)[nH]cnc3c2)cc1)Nc1cccc(F)c1 [QDAU3, 1-(3-fluorophenyl)-3-(4-(4-oxo-3,4-dihydroquinazolin-7-yl)phenyl)ure]",> 500 nM,90.7 nM,5.64 nM,> 300 °C,42600 nM,–,–,–,–
"O=C(Nc1ccc(F)cc1)Nc1ccc(-c2ccc3c(=O)[nH]cnc3c2)cc1 [QDAU6, 1-(4-fluorophenyl)-3-(4-(4-oxo-3,4-dihydroquinazolin-7-yl)phenyl)urea]",6.28 nM,101 nM,> 500 nM,> 300 °C,255000 nM,–,–,–,–
"O=C(Nc1ccc(OC(F)(F)F)cc1)Nc1ccc(-c2ccc3c(=O)[nH]cnc3c2)cc1 [QDAU7, 1-(4-(4-oxo-3,4-dihydroquinazolin-7-yl)phenyl)-3-(4-(trifluoromethoxy)phenyl)urea]",> 500 nM,258 nM,> 500 nM,> 300 °C,68500 nM,–,–,–,–
"CC(C)c1cccc(NC(=O)Nc2ccc(-c3ccc4c(=O)[nH]cnc4c3)cc2)c1 [QDAU8, 1-(3-isopropylphenyl)-3-(4-(4-oxo-3,4-dihydroquinazolin-7-yl)phenyl)urea]",41.5 nM,> 500 nM,> 500 nM,> 300 °C,76200 nM,–,–,–,–
"O=C(Nc1ccc(-c2ccc3c(=O)[nH]cnc3c2)cc1)Nc1ccc(Cl)c(C(F)(F)F)c1 [QDAU9, 1-(4-chloro-3-(trifluoromethyl)phenyl)-3-(4-(4-oxo-3,4-dihydroquinazolin-7-yl)phenyl)urea]",15.8 nM,19.6 nM,24.4 nM,> 300 °C,13000 nM,–,–,–,–
"O=C(Nc1ccc(-c2ccc3c(=O)[nH]cnc3c2)cc1)Nc1ccc(C(F)(F)F)cc1 [QDAU10, 1-(4-(4-oxo-3,4-dihydroquinazolin-7-yl)phenyl)-3-(4-(trifluoromethyl)phenyl)urea]",50.7 nM,52.7 nM,> 500 nM,> 300 °C,125000 nM,–,–,–,–
"CNC(=O)c1cc(Oc2ccc(NC(=O)Nc3ccc(Cl)c(C(F)(F)F)c3)cc2)ccn1 [Sorafenib, sorafenib, reference compound]",–,–,–,–,–,16.8 ± 0.9 g,53%,0.398 ± 0.8 g,–
"CNC(=O)c1cc(Oc2ccc(NC(=O)Nc3ccc(Cl)c(C(F)(F)F)c3)c(F)c2)ccn1 [regorafenib, reference compound]",–,–,–,–,–,–,–,–,11 min and 10.6 min
